From US12697315B2, “Treatment for interstitial lung disease” (United Therapeutics Corporation, priority 2020, dated 2026)

Columns and labels:
[1] = test system: patients with interstitial lung disease and pulmonary hypertension; assay: Exacerbations of underlying lung disease, 16-week placebo-controlled trial of inhaled treprostinil (INCREASE); format: in vivo, human
Experimental: Subjects having underlying lung disease were treated with inhaled treprostinil over 16 weeks. Subjects initiated inhaled treprostinil or placebo at a dose of 3 breaths (18 mcg) 4 times daily (during waking hours). Study drug doses were maximized throughout the study. Dose escalations (additional 1 breath 4 times daily) could occur up to every 3 days with a target dosing regimen of 9 breaths (54 mcg) 4 times daily and a maximum dose of 12 breaths (72 mcg) 4 times daily, as clinically tolerated. Subjects were assessed during Screening and Baseline to determine eligibility for the study. Once eligible, 5 Treatment Phase visits to the clinic were required at Week 4, Week 8, Week 12, Week 15, and Week 16 (final study visit). An Early Termination (ET) Visit was conducted for subjects who discontinued prior to Week 16; all assessments planned for the final Week 16 Visit were conducted during the ET Visit, if applicable. Subjects were contacted at least weekly by telephone or email to assess tolerance to study drug, adverse events (AEs), and changes to concomitant medications.

[2] = test system: patients with interstitial lung disease and pulmonary hypertension; assay: Occurrence of / time to clinical worsening, INCREASE; format: in vivo, human
Experimental: The primary end point of the trial was the difference between the two groups in the change in peak 6-minute walk distance from baseline to week 16. Secondary efficacy end points were analyzed in the following hierarchical testing order: the change in NT-proBNP level from baseline to week 16, the time to clinical worsening, the change in 6-minute walk distance at peak plasma treprostinil level at week 12, and the change in 6-minute walk distance at trough treprostinil level at week 15. The time to clinical worsening was evaluated from the time of randomization until the patient's withdrawal from the trial and was defined as the time until the occurrence of any one of the following events: hospitalization for a cardiopulmonary indication, a decrease in 6-minute walk distance greater than 15% from baseline that was directly related to the disease under study at two consecutive visits and at least 24 hours apart, death from any cause, or lung transplantation.

[3] = test system: patients with interstitial lung disease and pulmonary hypertension; assay: SpO2 by pulse oximetry around the 6-minute walk test, INCREASE; format: in vivo, human
Experimental: The 6-minute walk test was performed and laboratory data were obtained at baseline and at weeks 4, 8, 12, and 16, or at the time of early discontinuation of treprostinil or placebo. Each 6-minute walk test was performed 10 to 60 minutes after the most recent dose of active drug or placebo, which is the time of peak plasma treprostinil exposure. A trough test was performed at week 15 at least 4 hours after the participant received a dose of treprostinil or placebo and at least 24 hours before the week 16 test. Pulse oximetry was performed immediately before, during, and after each 6-minute walk test. Measurement of N-terminal pro-B-type natriuretic peptide (NT-proBNP) levels and pulmonary function tests were performed at baseline and at weeks 8 and 16 (or at early discontinuation) after the patients recovered from the 6-minute walk test. The St. George's Respiratory Questionnaire (SGRQ), a quality-of-life measure, was completed at baseline and week 16 or at the time of early discontinuation.

[4] = test system: patients with interstitial lung disease and pulmonary hypertension; assay: Adverse events and serious adverse events, INCREASE; details: 16-week trial
From the text: Safety assessments consisted of the development of AEs, vital signs, clinical laboratory parameters, ECG parameters, hospitalizations due to cardiopulmonary indications, exacerbations of underlying lung disease, and oxygenation.
Safety end points included adverse events, abnormal laboratory results, oxygenation as measured by pulse oximetry (Spo2) and supplemental oxygen requirement, changes in pulmonary function test results, hospitalization for a cardiopulmonary indication, and investigator-reported exacerbations of underlying lung disease, defined as acute, clinically significant respiratory deterioration characterized by evidence of new widespread alveolar abnormality.

CCCCC[C@H](O)CC[C@@H]1[C@H]2Cc3cccc(OCC(=O)O)c3C[C@H]2C[C@H]1O [Inhaled treprostinil, treprostinil]
patients with exacerbations of underlying lung disease ([1]; over the 16-week treatment period): 26.4% | hazard ratio, exacerbation of underlying lung disease ([1]; vs placebo, 16 weeks): 0.66 | reduction in risk of an exacerbation of underlying lung disease ([1]; vs placebo, 16 weeks): 34% | patients with clinical worsening ([2]; 16 weeks): 22.7% | patients with first occurrence of clinical worsening that involved hospitalization for a cardiopulmonary indication ([2]; 16 weeks): 11.0% | Clinical worsening: Death from any cause ([2]; 16 weeks, N = 163): 4 (2.5) no. (%) | Clinical worsening: Decrease in 6 minute walk distance of >15% from baseline ([2]; 16 weeks, N = 163): 13 (8.0) no. (%) | Clinical worsening: Hospitalization for cardiopulmonary indication ([2]; 16 weeks, N = 163): 18 (11.0) no. (%) | Clinical worsening: Lung transplantation ([2]; 16 weeks, N = 163): 2 (1.2) no. (%) | Occurrence of clinical worsening: Any event ([2]; 16 weeks, N = 163): 37 (22.7) no. (%) | Occurrence of clinical worsening, hazard ratio ([2]; vs placebo, Cox proportional-hazards model, listed as inhaled treprostinil): 0.61 | During Walk SpO2 (%), Change from Pre-walk, Median ([3]; Week 16): −17.0% | During Walk SpO2 (%), Value, Median ([3]; Week 16): 77.0% | Post-walk SpO2 (%), Change from Pre-walk, Median ([3]; Week 16): −13.0% | Post-walk SpO2 (%), Value, Median ([3]; Week 16): 83.0% | Pre-walk SpO2 (%), Value, Median ([3]; Week 16): 95.0% | During Walk SpO2 (%), Change from Pre-walk, Mean (SD) ([3]; Week 16, n 123): −17.6 (7.01) % | During Walk SpO2 (%), Value, Mean (SD) ([3]; Week 16, n 123): 76.8 (7.70) % | Post-walk SpO2 (%), Change from Pre-walk, Mean (SD) ([3]; Week 16, n 128): −12.4 (8.05) % | Post-walk SpO2 (%), Value, Mean (SD) ([3]; Week 16, n 128): 82.1 (9.24) % | Pre-walk SpO2 (%), Value, Mean (SD) ([3]; Week 16, n 130): 94.5 (4.35) % | treatment-related changes in pulse oximetry ([3]; over the trial period): no significant treatment-related changes | patients with serious adverse events [4]: patients (23.3%) | Adverse event: Cough ([4]; N = 163): 71 (43.6) no. of patients (%) | Adverse event: Diarrhea ([4]; N = 163): 22 (13.5) no. of patients (%) | Adverse event: Dizziness ([4]; N = 163): 30 (18.4) no. of patients (%) | Adverse event: Dyspnea ([4]; N = 163): 41 (25.2) no. of patients (%) | Adverse event: Fatigue ([4]; N = 163): 23 (14.1) no. of patients (%) | Adverse event: Headache ([4]; N = 163): 45 (27.6) no. of patients (%) | Adverse event: NT-proBNP increased ([4]; N = 163): 9 (5.5) no. of patients (%) | Adverse event: Nausea ([4]; N = 163): 25 (15.3) no. of patients (%) | Adverse event: Oropharyngeal pain ([4]; N = 163): 18 (11.0) no. of patients (%) | Adverse event: Throat irritation ([4]; N = 163): 20 (12.3) no. of patients (%) | Any Serious Event, number of patients ([4]; N = 163): 38 patients | Patients with ≥1 adverse event ([4]; N = 163): 152 (93.3) no. (%) | Patients with ≥1 serious adverse event ([4]; N = 163): 38 (23.3) no. (%) | Serious adverse event: Abdominal pain ([4]; N = 163): 0 n | Serious adverse event: Acute kidney injury ([4]; N = 163): 0 n | Serious adverse event: Acute myocardial infarction ([4]; N = 163): 1 n | Serious adverse event: Acute respiratory failure ([4]; N = 163): 4 n | Serious adverse event: Acute right ventricular failure ([4]; N = 163): 1 n | Serious adverse event: Arrhythmia ([4]; N = 163): 1 n | Serious adverse event: Aspiration ([4]; N = 163): 0 n | Serious adverse event: Atrial fibrillation ([4]; N = 163): 0 n | Serious adverse event: B-cell lymphoma ([4]; N = 163): 1 n | Serious adverse event: Bradycardia ([4]; N = 163): 0 n | Serious adverse event: Bronchitis ([4]; N = 163): 2 n | Serious adverse event: Bronchopulmonary aspergillosis ([4]; N = 163): 1 n | Serious adverse event: Cardiac arrest ([4]; N = 163): 1 n | Serious adverse event: Cardiac failure ([4]; N = 163): 0 n | Serious adverse event: Cardiac failure acute ([4]; N = 163): 0 n | Serious adverse event: Cardiac failure congestive ([4]; N = 163): 1 n | Serious adverse event: Cardiogenic shock ([4]; N = 163): 0 n | Serious adverse event: Cardiopulmonary failure ([4]; N = 163): 1 n | Serious adverse event: Cellulitis ([4]; N = 163): 1 n | Serious adverse event: Cerebral haemorrhage ([4]; N = 163): 1 n | Serious adverse event: Chest pain ([4]; N = 163): 1 n | Serious adverse event: Chronic obstructive pulmonary disease ([4]; N = 163): 2 n | Serious adverse event: Chronic respiratory failure ([4]; N = 163): 2 n | Serious adverse event: Chronic right ventricular failure ([4]; N = 163): 0 n | Serious adverse event: Coagulopathy ([4]; N = 163): 0 n | Serious adverse event: Combined pulmonary fibrosis and emphysema ([4]; N = 163): 1 n | Serious adverse event: Cor pulmonale ([4]; N = 163): 1 n | Serious adverse event: Cor pulmonale acute ([4]; N = 163): 0 n | Serious adverse event: Coronary artery disease ([4]; N = 163): 0 n | Serious adverse event: Death with unknown cause ([4]; N = 163): 3 n | Serious adverse event: Disease progression ([4]; N = 163): 0 n | Serious adverse event: Dyspnoea ([4]; N = 163): 3 n | Serious adverse event: Epistaxis ([4]; N = 163): 0 n | Serious adverse event: Fluid overload ([4]; N = 163): 0 n | Serious adverse event: Haematochezia ([4]; N = 163): 0 n | Serious adverse event: Haemoptysis ([4]; N = 163): 1 n | Serious adverse event: Hyperglycaemia ([4]; N = 163): 1 n | Serious adverse event: Hypertension ([4]; N = 163): 0 n | Serious adverse event: Hypervolaemia ([4]; N = 163): 1 n | Serious adverse event: Hypoxia ([4]; N = 163): 1 n | Serious adverse event: Idiopathic pulmonary fibrosis ([4]; N = 163): 1 n | Serious adverse event: Influenza ([4]; N = 163): 1 n | Serious adverse event: Interstitial lung disease ([4]; N = 163): 3 n | Serious adverse event: Left ventricular failure ([4]; N = 163): 1 n | Serious adverse event: Lumbar vertebral fracture ([4]; N = 163): 0 n | Serious adverse event: Metabolic encephalopathy ([4]; N = 163): 0 n | Serious adverse event: Pain ([4]; N = 163): 0 n | Serious adverse event: Pain in extremity ([4]; N = 163): 1 n | Serious adverse event: Pneumonia ([4]; N = 163): 1 n | Serious adverse event: Pneumonia influenzal ([4]; N = 163): 0 n | Serious adverse event: Pneumothorax ([4]; N = 163): 1 n | Serious adverse event: Post procedural infection ([4]; N = 163): 0 n | Serious adverse event: Presyncope ([4]; N = 163): 0 n | Serious adverse event: Pulmonary congestion ([4]; N = 163): 0 n | Serious adverse event: Pulmonary hypertension ([4]; N = 163): 1 n | Serious adverse event: Pulmonary oedema ([4]; N = 163): 1 n | Serious adverse event: Respiratory distress ([4]; N = 163): 0 n | Serious adverse event: Respiratory failure ([4]; N = 163): 2 n | Serious adverse event: Right ventricular failure ([4]; N = 163): 1 n | Serious adverse event: Scleroderma ([4]; N = 163): 0 n | Serious adverse event: Sepsis ([4]; N = 163): 0 n | Serious adverse event: Syncope ([4]; N = 163): 1 n | Serious adverse event: Tachycardia ([4]; N = 163): 1 n | Serious adverse event: Transplant dysfunction ([4]; N = 163): 0 n | Serious adverse event: Upper respiratory tract infection ([4]; N = 163): 2 n | Serious adverse event: Urosepsis ([4]; N = 163): 0 n | Total no. of adverse events ([4]; N = 163): 890 | Total no. of adverse events leading to withdrawal of treprostinil or placebo ([4]; N = 163): 47 | Total no. of serious adverse events ([4]; N = 163): 53 | patients with serious adverse events ([4]; listed as inhaled treprostinil): 23.3%
